From patent US9528092B2, “Methods of efficiently establishing induced pluripotent stem cells under hypoxic conditions” (Kyoto University, priority 2008, dated 2016)

Tested on: four-factor transduced MEFs
Experiment: Flow cytometric analysis of Nanog-GFP-positive cells on day 9 posttransduction
Assay type: cell-based, mouse
Details: day 5 to day 9 posttransduction, flow cytometry on day 9, four factors alone 0.01%
Experimental: Mice having a Nanog reporter were used as an experimental system. The Nanog reporter used was prepared by inserting the enhanced green fluorescent protein (EGFP) and puromycin resistant genes into the Nanog locus of a BAC (bacterial artificial chromosome) purchased from BACPAC Resources [Okita K. et al., Nature 448, 313-317 (2007)]. The mouse Nanog gene is expressed specifically in pluripotent cells such as ES cells and early embryos. The mouse iPS cells that have become positive for this reporter are known to be nearly equivalent to ES cells in terms of differentiation potential. Mouse embryonic fibroblasts (MEFs) and tail-tip fibroblasts (TTFs) obtained from a Nanog reporter mouse having this Nanog reporter [Okita K. et al., Nature 448, 313-317 (2007)] were transfected by means of retroviruses to establish iPS cells, and colonies expressing EGFP from the Nanog reporter were counted to evaluate the efficiency of establishment of iPS cells.
To investigate whether GFP-positive cells were detected earlier or not, the four-factor transduced MEFs were cultivated under 20% oxygen or under 5% oxygen with or without 2 mM valproic acid (VPA) from day 5 to day 9 posttransduction, and were subjected to flow cytometric analysis on day 9. Retroviral expression of four factors induced 0.01% of the cells to become GFP-positive on day 9 posttransduction. […]

For `CCCC(CCC)C(=O)O` [VPA, valproic acid], the “percentage of GFP-positive cells” value (2 mM VPA, 20% oxygen) was 0.48% and the “percentage of GFP-positive cells” value (co-treatment with hypoxia (5% oxygen) and 2 mM VPA) was 2.28%.
